Consider one molecule from patent publication US20050004044A1, “Use of orsaponin [3beta, 16beta, 17 alpha-trihydroxycholost-5-en-22-one 16-0-(2-0-4-methoxybenzoyl-beta-D-xylopyranosyl)-(1->3)-(2-0-acetyl-alpha-L-arabinopyranoside)] or OSW-1 and its derivatives for cancer therapeutics” (priority 2003, published 2005).

Test [1] has as its system Raji cells (lymphoma). In words: MTT cell growth inhibition, Raji. The class given is cell-based, human. The note with it: Homo sapiens, 72 h. On the procedure:
FIG. 2. Effect of Orsaponin (OSW-1) on cell growth in two human cancer cell lines including a leukemia and a lymphoma cell line. HL-60 (leukemia) and Raji cells (lymphoma) in exponentially growing phase were treated with the indicated concentrations of OSW-1 for 72 hours. Cell growth inhibition was measured by MTT assay.
Cells and Cell Lines. Various cancer cell lines were used including the human leukemia cell lines HL-60 and ML-1 cells; human lymphoma cell line Raji; human pancreatic cancer cells AsPC-1; and human ovarian cancer cells SKOV3; human colon cancer cells HCT116; as well as isolated CLL cells from patients; and lymphocytes from normal donors. Cells were grown and maintained as per protocols known in the art using appropriate cell culture media and supplements.
1. MTT Assays. For these assays either cancer cell lines were used. […] After the indicated number of days (usually 3 days or 72 hours) of exposure to OSW-1, cell survival was assessed by the addition of the MTT dye to the wells. […] Survival of cells under orsaponin treatment was evaluated as a percentage of control cell growth. […]
(§1) Anticancer activities of Orsaponin and 17-deoxyorsaponin were examined in human leukemia cells (ML-1) and human lymphoma cells (Raji). Cells were incubated with various concentrations of Orsaponin and 17-deoxyorsaponin for 72 h, and cell growth inhibition was measured by MTT assay.

For test [2], the system named is HCT116 p53−/− colon cancer cells. The test can be described thus: MTT cell growth inhibition, HCT116 p53−/−. The test is classed as cell-based. The note with it: Homo sapiens, HCT-116, 72 h. Here is the method:
(§2) 1. MTT Assays. For these assays either cancer cell lines were used. Alternatively, mononuclear cells from peripheral blood samples of CLL patients or normal donors were separated by Ficoll Hipaque fractionation and resuspended in DMEM complete medium. Malignant cells from various human cell lines (usually at 5×10^4 cells/ml) or mononuclear cells from peripheral blood of leukemia patients and healthy donors (1×10^6 cells/ml) were incubated in either αMEM or RPMI 1640 with or without various concentrations of OSW-1 in the range of 0-10 nM. Each experimental condition was done in triplicate. After the indicated number of days (usually 3 days or 72 hours) of exposure to OSW-1, cell survival was assessed by the addition of the MTT dye to the wells. The MTT dye changes its color depending on the presence of live cells in the well. Survival of cells under orsaponin treatment was evaluated as a percentage of control cell growth. Alternatively, one can also use the dye trypan-blue which penetrates dead cells thereby allowing one to count live cells under the microscope and estimating percentage survival.
(§3) Anticancer activity of 17-deoxyorsaponin in human colon cancer cells was examined. HCT116 p53+/+ and HCT116 p53−/− human colon cancer cells were incubated with the various concentrations of 17-deoxyorsaponin for 72 h. Cell growth inhibition was measured by MTT assay.

In test [3] the test system is ML-1 leukemia cells. In words: MTT cell growth inhibition, ML-1. The note with it: ML-1, 72 h. The test is classed as cell-based, human. On the procedure:
as §2, §1
The effect of 17-deoxyorsaponin in human ovarian cancer cells was determined. SKOV3 ovarian cancer cells were incubated with various concentrations of 17-deoxyorsaponin for 72 h. Cell growth inhibition was measured by MTT assay (FIG. 17). […] The effect of 17-deoxyorsaponin in human acute myeloid leukemia cells was also examined. ML-1 leukemia cells were incubated with various concentrations of 17-deoxyorsaponin for 72 h and cell growth inhibition was measured using the MTT assay (FIG. 18).

Test [4] has as its system ovarian cancer SKOV3 cells. In words: MTT cell growth inhibition, SKOV3. The test is classed as cell-based. The note with it: Homo sapiens, SK-OV-3, SKOV3, 72 h. On the procedure:
FIG. 5. Effect of Orsaponin (OSW-1) on cell growth in human ovarian cancer cells (SKOV3). Human ovarian cancer SKOV3 cells were treated with the indicated concentrations of OSW-1 for 72 h. Cell growth inhibition was measured by the MTT assay. The IC50 value is approximately 0.2 nM under the experimental conditions.
1. MTT Assays. For these assays either cancer cell lines were used. Alternatively, mononuclear cells from peripheral blood samples of CLL patients or normal donors were separated by Ficoll Hipaque fractionation and resuspended in DMEM complete medium. […] After the indicated number of days (usually 3 days or 72 hours) of exposure to OSW-1, cell survival was assessed by the addition of the MTT dye to the wells. […] Survival of cells under orsaponin treatment was evaluated as a percentage of control cell growth. […]
OSW-1 Inhibits Growth of Ovarian Cancer Cells. […] Human ovarian cancer SKOV3 cells were treated with 0-10 nM OSW-1 for 72 h and cell growth inhibition was measured by the MTT assay.
The effect of 17-deoxyorsaponin in human ovarian cancer cells was determined. […] Cell growth inhibition was measured by MTT assay (FIG. 17). […] ML-1 leukemia cells were incubated with various concentrations of 17-deoxyorsaponin for 72 h and cell growth inhibition was measured using the MTT assay (FIG. 18).

For test [5], the system named is pancreatic cancer (Panco-2) cells. In words: MTT cell growth inhibition, Panco-2. The test is classed as cell-based. The note with it: Mus musculus, Panco-2, 72 h. On the procedure: as §2
(§4) The effect of Orsaponin and 17-deoxyorsaponin in pancreatic cancer cells was also assessed. […] Cell growth inhibition was measured by MTT assay.

For test [6], the system named is pancreatic cancer AsPC-1 cells. In words: MTT cell growth inhibition, AsPC-1. The class given is cell-based, human. The note with it: Homo sapiens, ASPC1, 72 h, AsPC-1, 72 h. On the procedure: FIG. 3. Effect of Orsaponin (OSW-1) on cell growth in human pancreatic cancer cells. Human pancreatic cancer AsPC-1 cells were treated with the indicated concentrations of OSW-1 for 72 h or 96 h. Cell growth inhibition was measured by MTT assay.
FIG. 4. The anticancer activity of Orsaponin (OSW-1) is not affected by NFκB expression in pancreatic cancer cells. Human pancreatic cancer cells AsPC-1 with constitutive activation of NFκB or inactivation of NFκB by dominant negative IκBα (AsPC-1/IκBα-ND) were treated with the indicated concentrations of OSW-1 for 72 h. Cell growth inhibition was measured by MTT assay.
Cells and Cell Lines. Various cancer cell lines were used including the human leukemia cell lines HL-60 and ML-1 cells; human lymphoma cell line Raji; human pancreatic cancer cells AsPC-1; and human ovarian cancer cells SKOV3; human colon cancer cells HCT116; as well as isolated CLL cells from patients; and lymphocytes from normal donors. […]
1. […] After the indicated number of days (usually 3 days or 72 hours) of exposure to OSW-1, cell survival was assessed by the addition of the MTT dye to the wells. […] Survival of cells under orsaponin treatment was evaluated as a percentage of control cell growth. […]
as §4

In test [7] the test system is HCT116 p53+/+ colon cancer cells. The test can be described thus: MTT cell growth inhibition, HCT116 p53+/+. The class given is cell-based. The note with it: Homo sapiens, HCT-116, 72 h. Here is the method:
as §2, §3

In test [8] the test system is malignant glioma U87-MG cells. In words: MTT cell growth inhibition, U87-MG glioma. The note with it: U87-MG vs normal human astrocytes. The class given is cell-based, human. Here is the method: as §2
To test the therapeutic selectivity of Orsaponin and 17-deoxyorsaponin, their effect on human brain tumor cells (U87 malignant glioma) and normal human astrocytes were compared. The normal human astrocytes were previously immortalized by transfection with hTER to allow a long-term culture in vitro. The antiproliferative effect of Orsaponin in human malignant glioma cells (U87-MG) and normal human astrocytes was examined. Cells were incubated with various concentrations of Orsaponin for 72 h. Cell growth inhibition was measured by MTT assay (FIG. 21).

The test system of test [9] is primary CLL cells. The test can be described thus: cells. The test is classed as cell-based. The note with it: Homo sapiens, CLL cell, CLL cells, median of 11 patient samples; read-out: IC50 (nM), Median. On the procedure:
FIG. 7. Effect of Orsaponin (OSW-1) on cell survival in primary human leukemia cells isolated from patients with chronic lymphocytic leukemia (CLL). Freshly isolated primary CLL cells were incubated with the indicated concentrations of OSW-1 for 72 hours in vitro. Cell viability was measured by MTT assay. […] Data from representative experiments with CLL cells from three different patients are shown. A total of 23 CLL blood samples were tested for sensitivity to OSW-1 in the same fashion.
as §2
Reduction of Cell Viability in CLL-Patient-Derived Cells. […] Freshly isolated primary CLL cells were incubated with the 0-100 nM OSW-1 for 72 hours in vitro and cell viability was measured by the MTT assay.
Cytotoxic activity of 17-deoxyorsaponin was also assessed in a number of patient samples. Primary human leukemia cells isolated from 11 patients with chronic lymphocytic leukemia (CLL) were analyzed for cytotoxic activity of 17-deoxyorsaponin. […]

Usually IC50 stands for the concentration needed to halve the response being measured.

As to `COc1ccc(C(=O)OC2C(OC3C(O)COC(O[C@H]4C[C@H]5[C@@H]6CC=C7C[C@@H](O)CC[C@]7(C)[C@H]6CC[C@]5(C)[C@H]4[C@H](C)C(=O)CCC(C)C)C3OC(C)=O)OCC(O)C2O)cc1` (stereo partly shown) [17-deoxyorsaponin], the IC50 in test [1] is less than 0.1 nM; in test [2], roughly 1 nM; in test [3] (Homo sapiens, 72 h) it was less than 0.1 nM; in test [3], roughly 0.2 nM; in [4], roughly 0.1 nM; in test [5] it was 0.1 nM. For the same molecule, the IC50 was 1 nM in test [6], roughly 1 nM in test [7] and 0.37 nM in test [9]. Besides, the “sensitivity of glioma cells compared with normal astrocytes” value in test [8] is recorded as “more sensitive”.
